# Reference: patent US20250288515A1, “METHOD AND COMPOSITION FOR TREATING LUNG DISEASES” (MannKind Corporation, priority 2022, published 2025)
# Assay: Pharmacokinetic study in rats, pulmonary insufflation versus intravenous injection
# Format: in vivo
# Details: male Sprague Dawley rats, single dose 0.8 mg/kg, samples 10-240 minutes; FIG. 5
# Procedure: Pharmacokinetic studies in rats with Compound I crystalline composite (XC) dry powders-Insufflation studies were performed in rats to deliver doses of dry powders of Compound I, a protein kinase antagonist. The study was performed to determine the pharmacokinetics profile of compound I dry powders made by the process as described above following pulmonary insufflation, or intravenous injection of a single dose of the composition administered in solution to male Sprague Dawley (Charles River Laboratories) adult rats, weighing between 200 g and 250 g at the time of the study. Dry powder comprising 22.1 wt % actual drug content were used and tested at 1 mg/ml in solution to deliver a dose of 0.8 mg/kg to 18 rats in each study group. Rats acclimatized and anesthetized prior to experimentation. Lung and blood samples were taken from the rats at 10, 20, 30, 120, and 240 minutes, post drug administration.
compound,measurement,value
"Cc1cccc(-n2ncc(C)c2-c2cc3cnccc3s2)n1 [compound I, 2 [4-methyl-1-(6-methylpyridin-2yl)-1H-pyrazol-5-yl]thieno-[3,2 c]pyridine]",Lung content of compound I after insufflation versus IV injection,higher content of compound I was detected in rat lung after insufflation versus IV injection
